Data published in patent US10183936B2, “Hepatitis B core protein allosteric modulators” (priority 2014, dated 2019).

Columns and labels:
[1] = system: HBV viral production in AD38 cells; experiment: Viral load production in AD38 cells by quantitative PCR of the HBV core sequence in supernatant; type: cell-based; settings: 10 μM compound, 6 days at 37° C., viral load in supernatant compared against DMSO control wells; for activity at 10 µM: Hepatitis B virus, 144 h, read-out: AD38 Viral Load (CpAM/DMSO %) at 10 μM
Method: (§1) Example 56: Assay Measuring Activity of Compounds on Viral Production in and on Viability of AD38 Cells
(§2) AD38 cells were then re-suspended with 10 mL of Treatment Medium and counted. Wells of a collagen coated 96-well NUNC microtiter plate were seeded at 50,000/well in 180 μL of Treatment Medium, and 20 μL of in treatment media with either 10% DMSO (Control) or a 10× solution of compound in 10% DMSO was added. Plates were incubated for 6 days at 37° C.
Viral load production was assayed by quantitative PCR of the core sequence. Briefly, 5 μL of clarified supematant was added to a PCR reaction mixture that contained forward primers HBV-f 5′-CTGTGCCTTGGGTGGCTTT-3′, Reverse primers HBV-r 5′-[…]-3′ and Fluorescent TaqMan™ Probes HBV-probe 5′-FAM/AGCTCCAAA/ZEN/[…]/3IABkFQ-3′ in Quanta Biosciences PerfeCTa® qPCR Toughmix®, and was subsequently on an Applied Biosystems VIIA7 in a final volume of 20 μL. The PCR mixture was incubated at 45° C. for 5 minutes, then 95° C. for 10 min, followed by 40 cycles of 10 seconds at 95° C. and 20 seconds at 60° C. Viral load was quantitated against known standards by using ViiA™ 7 Software. Viral load in the supematant from wells with treated cells were compared against viral load in supernatant from DMSO control wells (≥3 per plate).

[2] = system: AD38 cells; experiment: Viability of AD38 cells (Promega CellTiter-Glo) at the end of compound treatment; type: cell-based; settings: 10 μM compound, 6 days, luminescence normalized against DMSO control wells (controls being 100%)
Method: as §1, §2
At the end of compound treatment period cell viability was assessed using a Promega CellTiter-Glo protocol. All supernatant was removed the previously treated 96-well microtiter plate, and 50 μL Tetracycline-free treatment medium (DMEM/F12 (1:1), lx Pen/step (cat#: 30-002-CL, Mediatech, Inc), with 2% FBS, Tet-system approved (cat#: 631106, Clontech), and 1% DMSO was added back to each well. Another 50 μL of CellTiter-Glo reagent solution (Promega, G7573) was then added at room temperature and the contents mixed for 2 minutes on an orbital shaker to induce cell lysis. This was followed by incubation at room temperature for 10 minutes to stabilize the luminescent signal. The luminescence was recorded for 0.2 seconds per well on a Tecan multimode platereader (Infinite M1000 pro). The luminescent signal from each well was normalized against that of untreated (DMSO) control wells. All results were reported percent viability (with controls being 100%).

Row | SMILES | activity at 10 µM [1] [%] | AD38 Viability Normalized Result (CPAM/DMSO %) at 10 μM [2] [%] | AD38 Viral Load (CpAM/DMSO %) at 10 μM [1] [%]
1 | O=C(Nc1nc2ccccc2o1)c1ccc2c(c1)NC(=O)c1cc(F)ccc1S2 [Compound 1354] | 98 | 70 | –
2 | O=C1Nc2cc(S(=O)(=O)N3CCC(O)C3)ccc2Sc2ccccc21 (stereo not shown) [Compound 1433] | 82 | 94 | –
3 | Cc1c(C(=O)NCCc2cncs2)ccc2c1NC(=O)c1ccccc1S2 [Compound 1561] | 8 | 118 | –
4 | CCN1c2ccc(C(=O)NCCc3ccccn3)cc2NC(=O)c2ccccc21 [Compound 1522] | 1 | 82 | –
5 | Cc1cccc(CNC(=O)c2ccc3c(c2)NC(=O)c2ccccc2S3(=O)=O)c1 [Compound 1621] | 1 | 117 | –
6 | O=C(NCc1cccc(C(F)(F)F)c1)c1ccc2c(c1)NC(=O)c1ccccc1S2 [Compound 1166] | 10 | 119 | –
7 | O=C(NCc1ccc(F)cc1)c1ccc2c(c1)NC(=O)c1ccccc1S2(=O)=O [Compound 1623] | 1 | 128 | –
8 | CS(=O)(=O)c1ccc(CCNC(=O)c2ccc3c(c2)NC(=O)c2ccccc2S3)cc1 [Compound 1103] | 2 | 87 | –
9 | Cc1ccc(CCNC(=O)c2ccc3c(c2)NC(=O)c2ccccc2S3)cc1 [Compound 1184] | 1 | 0 | –
10 | O=C(NCCc1ccc(-c2cncnc2)cc1)c1ccc2c(c1)NC(=O)c1cc(F)ccc1S2 [Compound 1320] | 43 | 93 | –
11 | O=C(NCCc1cncnc1)c1ccc2c(c1)NC(=O)c1ccc(F)cc1S2 [Compound 1362] | 19 | 98 | –
12 | O=C1Nc2cc(S(=O)(=O)NCc3cncs3)ccc2Sc2ccccc21 [Compound 1556] | 67 | 86 | –
13 | O=C(NCc1cncs1)c1ccc2c(c1)NC(=O)c1ccccc1[S+]2[O-] (stereo not shown) [Compound 1388] | 5 | 71 | –
14 | Cc1ncc(CNC(=O)c2ccc3c(c2)NC(=O)c2ccccc2S3)s1 [Compound 1588] | 0 | 98 | –
15 | O=C(NCCc1cccnc1)c1ccc2c(c1)NC(=O)c1c(F)cccc1S2 [Compound 1555] | 36 | 81 | –
16 | Nc1nnc(CCNC(=O)c2ccc3c(c2)NC(=O)c2ccccc2S3)s1 [Compound 1568] | 1 | 100 | –
17 | O=C(NCc1ccccc1N1CCCC1)c1ccc2c(c1)NC(=O)c1ccccc1S2 [Compound 1240] | 26 | 92 | –
18 | O=C1Nc2cc(COCCc3ccccc3)ccc2Sc2ccccc21 [Compound 1501, 8-(phenethoxymethyl) dibenzo [b,f] [1,4] thiazepin-11(10H)-one] | 37 | 71 | –
19 | Cc1nnc(CCNC(=O)c2ccc3c(c2)NC(=O)c2ccccc2S3)[nH]1 [Compound 1583] | 41 | 121 | –
20 | O=C(NCC12CC3CC(CC(C3)C1)C2)c1ccc2c(c1)NC(=O)c1ccccc1S2 [Compound 1189] | 1 | 85 | –
21 | O=C(NC[C@@H](O)c1ccccc1)c1ccc2c(c1)NC(=O)c1ccccc1S2 [Compound 1226] | 1 | 80 | –
22 | O=C(NCC(c1ccccc1)N1CCCC1)c1ccc2c(c1)NC(=O)c1ccccc1S2 (stereo not shown) [Compound 1251] | 8 | 99 | –

Row | SMILES | activity at 10 µM [1] [%] | AD38 Viability Normalized Result (CPAM/DMSO %) at 10 μM [2] [%] | AD38 Viral Load (CpAM/DMSO %) at 10 μM [1] [%]
23 | O=C(NCCc1ccc(-c2ccccc2)cc1)c1ccc2c(c1)NC(=O)c1cccc(F)c1S2 [Compound 1466] | 7 | 88 | –
24 | Cc1ncsc1CNC(=O)c1ccc2c(c1)NC(=O)c1ccccc1S2 [Compound 1600] | 12 | 108 | –
25 | Cl.O=C(NCC1CCCN1)c1ccc2c(c1)NC(=O)c1ccccc1S2 (stereo not shown) [Compound 1633, 11-oxo-N-(pyrrolidin-2-ylmethyl)-10, 11-dihydrodibenzo [b,f] [1,4] thiazepine-8-carboxamide hydrochloride] | 66 | 124 | –
26 | O=C(Nc1cccc(-c2ccccn2)c1)c1ccc2c(c1)NC(=O)c1cc(F)ccc1S2 [Compound 1385] | 26 | 51 | –
27 | O=C(NCCc1cncs1)c1ccc2c(c1)NC(=O)c1ccccc1S2 [Compound 1247] | 8 | 103 | –
28 | O=C(Nc1cc(F)c(F)c(F)c1)c1ccc2c(c1)NC(=O)c1cc(F)ccc1S2 [Compound 1324] | 10 | 24 | –
29 | O=C(NCc1scnc1Cl)c1ccc2c(c1)NC(=O)c1ccccc1S2 [Compound 1632] | 2 | 122 | –
30 | Cc1c(C(=O)Nc2ccncc2)ccc2c1NC(=O)c1ccccc1S2 [Compound 1516] | 30 | 82 | –
31 | O=C(NCc1cccnc1)c1ccc2c(c1)NC(=O)c1ccccc1S2 [Compound 1211] | 1 | 106 | –
32 | CCCCCCCCNC(=O)c1ccc2c(c1)NC(=O)c1ccccc1S2 [Compound 1152] | 1 | 45 | –
33 | O=C(NC[C@H](O)c1ccccc1)c1ccc2c(c1)NC(=O)c1ccccc1S2 [Compound 1220] | 2 | 94 | –
34 | O=C(Nc1ccc(-c2ccccc2)cc1)c1ccc2c(c1)NC(=O)c1cc(F)ccc1S2 [Compound 1326] | 23 | 95 | –
35 | CC(C)(C)OC(=O)C(Cc1cncnc1)NC(=O)c1ccc2c(c1)NC(=O)c1cc(F)ccc1S2 (stereo not shown) [Compound 1346, Tert-Butyl 2-(2-fluoro-11-oxo-10, 11-dihydrodibenzo [b,f] [1,4]thiazepine-8-carboxamido)-3-(pyrimidin-5-yl) propanoate] | – | 97 | 105
36 | CN(C)S(=O)(=O)c1ccc(CCNC(=O)c2ccc3c(c2)NC(=O)c2ccccc2S3)cc1 [Compound 1102] | 1 | 100 | –
37 | O=C(Nc1ccc(Cl)cc1F)c1ccc2c(c1)NC(=O)c1cc(F)ccc1S2 [Compound 1334] | 33 | 83 | –
38 | O=C(NCc1ccc(F)cc1)c1ccc2c(c1)NC(=O)c1ccccc1S2 [Compound 1197] | 1 | 88 | –
39 | O=C(NCc1cnc(Cl)s1)c1ccc2c(c1)NC(=O)c1ccccc1S2 [Compound 1589] | 1 | 85 | –
40 | COC(=O)c1ccccc1-c1cccc(NC(=O)c2ccc3c(c2)NC(=O)c2ccccc2S3(=O)=O)c1 [Compound 1628] | 17 | 138 | –
41 | O=C(NCc1cnco1)c1ccc2c(c1)NC(=O)c1c(F)cccc1S2 [Compound 1542] | 34 | 95 | –
42 | Cl.O=C(NCC1CCNC1)c1ccc2c(c1)NC(=O)c1ccccc1S2 (stereo not shown) [Compound 1608, 11-oxo-N-(pyrrolidin-3-ylmethyl)-10, 11-dihydrodibenz[b,f] [1,4] thiazepine-8-carboxamide hydrochloride] | 63 | 103 | –
43 | O=C(Nc1cccc(-c2ccncn2)c1)c1ccc2c(c1)NC(=O)c1cc(F)ccc1S2 [Compound 1451] | 30 | 92 | –
44 | O=C(NCc1cncnc1)c1ccc2c(c1)NC(=O)c1ccc(F)cc1S2 [Compound 1347] | 3 | 94 | –
